From PMC4281101 (Journal of Medicinal Chemistry, 2014)
Values after ≈ are worked out from the molar mass of the structure shown.

Assays:
[1] = Solubility in simulated gastric/intestinal fluids; assay type: physicochemical; conditions: simulated intestinal fluid, pH 6.8
[2] = Stability in the mouse liver microsome; conditions: for microsomal CLint at 0.5 μM: CD-1, mouse, liver microsomes, pH 7.4; for Clapp / Clh / Eh / k: CD-1 mouse liver microsomes
[3] = test system: KM mice; test: Acute toxicity in mice; assay type: in vivo
[4] = Pharmacokinetics analysis of 3r in CD-1 mice; assay type: in vivo; conditions: 5 mg/kg
[5] = test system: PEPCK mRNA expression in HepG2 cell; test: Cell-based assay for inhibition on the mRNA expression of PEPCK
[6] = test system: G-6-Pase mRNA expression in HepG2 cell; test: Cell-based assay for inhibition on the mRNA expression of G-6-Pase
[7] = Pharmacokinetics analysis of 8r in SD rats; assay type: in vivo; conditions: 5 mg/kg; for T1/2: SD rats
[8] = target: T1, PDE9A2 (181–506) (Homo sapiens, UniProt O76083); test: PDE enzymatic assay, PDE9A2 catalytic domain; assay type: biochemical
[9] = Pharmacokinetics of 28s; assay type: in vivo; conditions: blood, po, 5 mg/kg
[10] = target: T1, PDE9A2 (181–506); conditions: read-out: IC50 ± SD, PDE9A2 (181–506); 28s from previous report; cited from earlier work
[11] = HepG2 cell-based assay, general statement
[12] = HepG2 cell, cAMP/dexamethasone stimulation, 300 nM, in words

T1 sequence (O76083 241-566): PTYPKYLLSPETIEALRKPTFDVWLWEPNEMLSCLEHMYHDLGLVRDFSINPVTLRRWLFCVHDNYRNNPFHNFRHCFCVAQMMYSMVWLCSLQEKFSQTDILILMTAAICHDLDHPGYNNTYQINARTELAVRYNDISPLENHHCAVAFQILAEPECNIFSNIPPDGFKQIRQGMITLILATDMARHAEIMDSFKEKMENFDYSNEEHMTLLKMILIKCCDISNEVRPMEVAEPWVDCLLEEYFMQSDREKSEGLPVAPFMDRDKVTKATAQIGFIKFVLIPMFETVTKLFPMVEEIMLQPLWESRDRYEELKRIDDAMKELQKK

Q: Which results are given for `COc1ccc(NC(=O)[C@@H](C)Nc2nc3c(cnn3C3CCCC3)c(=O)[nH]2)cc1` [Compound 3r, (R)-2-((1-Cyclopentyl-4-hydroxy-1H-pyrazolo[3,4-d]pyrimidin-6-yl)amino)-N-(4-methoxyphenyl)propanamide]?
A: solubility [1]: 31 ± 4 µg/mL (≈ 78.2 µM); microsomal CLint at 0.5 μM [2]: 62 µL/min/mg; Clapp [2]: 244.3 mL min^–1 kg^–1; Clh [2]: 65.8 mL min^–1 kg^–1; Eh [2]: 73.1%; k [2]: 0.03102; dose well tolerated ([3]; single oral dose): ≤ 1200 mg/kg; acute toxicity ([3]; single oral dose up to 1200 mg/kg): no acute toxicity; abnormal behaviors, water/food consumption and body weight ([3]; single oral doses 600 or 1200 mg/kg, 2 weeks): no abnormal behaviors and significant changes of water/food consumption and body weight were observed; T1/2 ([4]; iv, CD-1 mice): 5.34 ± 1.43 h; MRT inf ([4]; male, CD-1, mouse, blood, iv): 1.08 ± 0.08 h; Vd ([4]; male, CD-1, mouse, blood, iv): 1.53 ± 0.15 L/kg; clearance ([4]; male, CD-1, mouse, blood, iv): 23.8 mL/min/kg; C0 ([4]; male, CD-1, mouse, blood, iv, C0, iv, CD-1 mice): 24500 ± 7520 ng/mL; Cmax ([4]; male, CD-1, mouse, blood, po): 217 ng/mL; MRT inf ([4]; male, CD-1, mouse, blood, po): 2.65 ± 0.82 h; Tmax ([4]; male, CD-1, mouse, blood, po): 0.58 ± 0.38 h; bioavailability ([4]; male, CD-1, mouse, blood, po): 9.8 ± 3.1%; CL ([4]; po, CD-1 mice): 14.6 ± 3.5 L h^–1 kg^–1; T1/2 ([4]; po, CD-1 mice): 1.67 ± 0.04 h; Vss ([4]; po, CD-1 mice): 35.0 ± 7.9 L/kg; mRNA expression of phosphoenolpyruvate carboxykinase [5, 11]: inhibits the mRNA expression; 8-Br-cAMP/dexamethasone-induced expression of PEPCK ([5]; HepG2 cells, 10 nM, in words): back to the basal level; mRNA expression of glucose 6-phosphatase [6, 11]: inhibits the mRNA expression; 8-Br-cAMP/dexamethasone-induced expression of G-6-Pase ([6]; HepG2 cells, 10 nM, in words): back to the basal level

Q: Which T1/2 ([7]; iv) does the source give for `C[C@@H](Nc1nc2c(cnn2C2CCCC2)c(=O)[nH]1)C(=O)Nc1ccc(F)cc1` [Compound 8r, (R)-2-((1-Cyclopentyl-4-oxo-4,5-dihydro-1H-pyrazolo[3,4-d]pyrimidin-6-yl)amino)-N-(4-fluorophenyl)propanamide] here?
A: 1.01 ± 0.09 h

Q: What about the C0 ([7]; male, SD, rat, blood, iv) of the same molecule?
A: 19100 ± 428 ng/mL

Q: What about the MRT inf ([7]; male, SD, rat, blood, iv) of the same molecule?
A: 0.59 ± 0.13 h

Q: What about the Vd ([7]; male, SD, rat, blood, iv) of the same molecule?
A: 2.58 ± 0.07 L/kg

Q: And the clearance ([7]; male, SD, rat, blood, iv)?
A: 29.7 mL/min/kg

Q: What about the Cmax ([7]; male, SD, rat, blood, po) of the same molecule?
A: 135 ± 55 ng/mL

Q: And the MRT inf ([7]; male, SD, rat, blood, po)?
A: 3.94 ± 1.11 h

Q: And the Tmax ([7]; male, SD, rat, blood, po)?
A: 1 ± 0.87 h

Q: What about the bioavailability ([7]; male, SD, rat, blood, po) of the same molecule?
A: 18 ± 7%

Q: And the T1/2 ([7]; po)?
A: 4.08 ± 1.00 h

Q: Which Ki [8] does the source give for `COc1ccc(NC(=O)[C@@H](C)Nc2nc3c(cnn3-c3ccccc3Cl)c(=O)[nH]2)cc1` [Compound 28r, (R)-2-((1-(2-Chlorophenyl)-4-hydroxy-1H-pyrazolo[3,4-d]pyrimidin-6-yl)amino)-N-(4-methoxyphenyl)propanamide] here?
A: 5 nM

Q: With `COc1ccc(NC(=O)[C@H](C)Nc2nc3c(cnn3-c3ccccc3Cl)c(=O)[nH]2)cc1` [Compound 28s] as the molecule, how does the Ki [8] read?
A: 16 nM

Q: And the Cmax [9]?
A: 16 ng/mL

Q: What about the IC50 [10] of the same molecule?
A: 21 ± 5 nM

Q: With `C[C@]12CC[C@H]3[C@@H](CCC4=CC(=O)CC[C@@]43C)[C@@H]1CC[C@@H]2O` [testosterone] as the molecule, how does the microsomal CLint at 0.5 μM [2] read?
A: 692 µL/min/mg

Q: And the Clapp [2]?
A: 2725.1 mL min^–1 kg^–1

Q: And the Clh [2]?
A: 87.1 mL min^–1 kg^–1

Q: And the Eh [2]?
A: 96.8%

Q: What about the k [2] of the same molecule?
A: 0.346

Q: With `CC(=O)CC(c1ccccc1)c1c(O)c2ccccc2oc1=O` (stereo not drawn) [warfarin] as the molecule, how does the Clapp [2] read?
A: 30.9 mL min^–1 kg^–1

Q: What about the Clh [2] of the same molecule?
A: 23.0 mL min^–1 kg^–1

Q: Which “mRNA expression of PEPCK” value [5, 12] does the source give for insulin here?
A: to the basal level

Q: And the “mRNA expression of G-6-Pase” value [6, 12]?
A: to the basal level
